Experimental data from patent publication US6503939B2, “Combination regimens using 3,3-substituted indoline derivatives” (Wyeth, priority 1999, dated 2003).

Structure (SMILES): CC1Nc2ccc(-c3cccc([N+](=O)[O-])c3)cc2C1(C)C.Cl (stereo not shown)
- melting point: 240 to 241 °C
